Assay results from patent US20170020867A1 (priority 2015, published 2017).
Entries after “also recorded” stand apart in the source; their conditions may differ.

Columns and labels:
[1] = tested on: patients with moderate to severe active Crohn's disease; assay: Phase IIa clinical trial: Crohn's Disease Activity Index (CDAI)
[2] = tested on: patients with moderate to severe active Crohn's disease; assay: Phase IIa clinical trial: safety
[3] = tested on: C Reactive Protein (CRP) level; assay: Phase IIa clinical trial: C Reactive Protein (CRP) level; format: in vivo, human
[4] = tested on: human cord blood mast cells; conditions: cited from earlier work
[5] = tested on: patients with moderate to severe active Crohn's disease; conditions: human, in vivo
[6] = tested on: patients with moderate to severe active Crohn's disease; assay: Phase IIa clinical trial: corticosteroids decrease; format: in vivo, human; conditions: among patients who maintained corticosteroids during the study
Excerpt: Fifteen patients were on corticosteroids prior to study entry.

[7] = week 4, Observed Cases, ITT population
[8] = week 8, Observed Cases, ITT population
[9] = week 8, Observed Cases, ITT population, listed as masitinib
[10] = week 8, patients with CDAI >350 at baseline, ITT population
[11] = week 8, patients with CDAI >350 at baseline, ITT population, listed as masitinib
[12] = week 8, OC dataset, ITT population, All

With Cc1ccc(NC(=O)c2ccc(CN3CCN(C)CC3)cc2)cc1Nc1nc(-c2cccnc2)cs1 [Masitinib, 4-(4-methylpiperazin-1-ylmethyl)-N-[4-methyl-3-(4-pyridin-3ylthiazol-2-ylamino)phenyl]benzamide] the “mean CDAI decrease” value ([1]; 4 weeks after the initiation of treatment) was 80 units, the “additional remission, number of patients” value ([1]; after the first 8-week period) was “one” and the “Complete remission, number of patients” value ([1]; during the first 8-week period) was “two”. For the same molecule, the “Complete remission, patients” value ([1]; patient presenting with CDAI>350 at baseline) was 10%, the “CDAI enhanced response (at least 100 pts decrease), patients” value ([1]; week 4, LOCF, ITT population) was 5 (31.3%) and the “CDAI response (at least 70 pts decrease), patients” value ([1]; week 4, LOCF, ITT population) was 8 (50.0%). For the same molecule, the “CDAI enhanced response (at least 100 pts decrease), patients” value [1, 7] was 5 (31.3%), the “CDAI response (at least 70 pts decrease), patients” value [1, 7] was 8 (50.0%) and the “CDAI response (at least 70 pts decrease), patients” value ([1]; week 4, Observed Cases, ITT population, listed as masitinib) was 50%. For the same molecule, the “CDAI enhanced response (at least 100 pts decrease), patients” value ([1]; week 8, LOCF, ITT population) was 5 (31.3%), the “CDAI response (at least 70 pts decrease), patients” value ([1]; week 8, LOCF, ITT population) was 7 (43.8%) and the “Mean CDAI absolute change from baseline (SD)” value ([1]; week 8, LOCF, ITT population) was −59.9 (112.2). For the same molecule, the “Median CDAI absolute change from baseline” value (from here on “Median CDAI absolute change”) ([1]; week 8, LOCF, ITT population) was −64.5, the “Mean CDAI absolute change from baseline (SD)” value ([1]; week 8, OC, ITT population) was −86.0 (128.9) and the “Median CDAI absolute change” value ([1]; week 8, OC, ITT population) was −101.0. For the same molecule, the “Mean CDAI absolute change from baseline (SD)” value ([1]; week 8, OC, ITT population, listed as masitinib) was −86, the “CDAI enhanced response (at least 100 pts decrease), patients” value ([1]; week 8, OC, ITT, L1) was “(100.0%)” and the “Mean CDAI absolute change from baseline” value ([1]; week 8, OC, ITT, L1) was −153.0. For the same molecule, the “Median CDAI absolute change” value ([1]; week 8, OC, ITT, L1) was −153.0, the “CDAI enhanced response (at least 100 pts decrease), patients” value ([1]; week 8, OC, ITT, L1, listed as masitinib) was 100% and the “CDAI enhanced response (at least 100 pts decrease), patients” value ([1]; week 8, OC, ITT, L2) was “(0.0%)”. The “Mean CDAI absolute change from baseline” value ([1]; week 8, OC, ITT, L2) was −50.0, the “Median CDAI absolute change” value ([1]; week 8, OC, ITT, L2) was −50.0 and the “CDAI enhanced response (at least 100 pts decrease), patients” value ([1]; week 8, OC, ITT, L3) was “(57.1%)”. The “Mean CDAI absolute change from baseline” value ([1]; week 8, OC, ITT, L3) was −86.7, the “Median CDAI absolute change” value ([1]; week 8, OC, ITT, L3) was −103.0 and the “CDAI enhanced response (at least 100 pts decrease), patients” value ([1]; week 8, OC, ITT, L3, listed as masitinib) was 57%. The “CDAI response (at least 70 pts decrease), patients” value ([1]; week 8, OC, ITT, patients naive or previously treated with corticosteroids (L1)) was “(100.0%)”, the “CDAI response (at least 70 pts decrease), patients” value ([1]; week 8, OC, ITT, patients previously treated with azathioprine (Immurel) or immunotherapy (L2)) was “(50.0%)” and the “CDAI response (at least 70 pts decrease), patients” value ([1]; week 8, OC, ITT, patients previously treated with biological agent (L3)) was “(71.4%)”. The “CDAI response (at least 70 pts decrease), patients” value ([1]; week 8, OC, ITT, patients previously treated with biological agent (L3), listed as masitinib) was 71%, the “CDAI enhanced response (at least 100 pts decrease), patients” value [1, 8] was 5 (50.0%) and the “CDAI response (at least 70 pts decrease), patients” value [1, 8] was 7 (70.0%). For the same molecule, the “improvement of mean disease activity” value [1, 8] was 23%, the “CDAI enhanced response (at least 100 pts decrease), patients” value [1, 9] was 50% and the “CDAI response (at least 70 pts decrease), patients” value [1, 9] was 70%. For the same molecule, the “CDAI absolute change from baseline Mean (SD)” value [1, 10] was −152.3 (78.5), the “CDAI absolute change from baseline, Median” value [1, 10] was −116.5 and the “CDAI enhanced response (at least 100 pts decrease), patients” value [1, 10] was 4 (66.7%). For the same molecule, the “CDAI response (at least 70 pts decrease), patients” value [1, 10] was 6 (100.0%), the “CDAI enhanced response (at least 100 pts decrease), patients” value [1, 11] was 67% and the “CDAI response (at least 70 pts decrease), patients” value [1, 11] was 100%. The tolerability ([2]; 8 weeks of observation, 4.5 or 6 mg/kg/day oral in two daily intakes) was “well tolerated; also recorded: well-tolerated”, the “patients who experienced at least one adverse event (AE)” value ([2]; during the treatment) was 94% and the “adverse event abdominal pain, patients” value ([2]; human, in vivo) was 22%. The “adverse event asthenia, patients” value ([2]; human, in vivo) was 33%, the “adverse event nausea, patients” value ([2]; human, in vivo) was 28% and the “adverse event vomiting, patients” value ([2]; human, in vivo) was 33%. The “CRP level change from baseline” value ([3]; patients previously treated with anti-TNF) was −30%, the “CRP absolute change, Median” value [3, 12] was -19.0 mg/L and the “CRP mean absolute change ± SD” value [3, 12] was -19.7 ± 21.8 mg/L. The FcεRI-mediated degranulation [4] was “inhibition of FcεRI-mediated degranulation”, the death [5] was “no death” and the “patients with a serious adverse event” value ([5]; 8 weeks) was 44%. For the same molecule, the “patients whose corticosteroid dose was decreased during study” value [6] was 50%.
